According to patent US20240417435A1, “DEFENSIN-DERIVED PEPTIDE WITH ANTIBACTERIAL ACTIVITY ALSO AGAINST MULTI-ANTIBIOTIC-RESISTANT BACTERIA” (priority 2021, published 2024):
In brackets after ≈: the same amount, converted by molar mass. Where a SMILES comes first, the peptide text is derived from it.

Tests used:
[1] = test system: P. aeruginosa MDR 2 strain; assay: In vitro time-kill kinetics assay; assay type: cell-based, Pseudomonas aeruginosa
Protocol: (§1) The MIC is indicated by the concentration interval, which comprise the upper growth limit and the first concentration which could not support visible bacterial growth after incubation. The MBC was defined as the lowest concentration at which no viable colonies were observed. The peptide concentrations were 128.0, 64.0, 32.0, 16.0, 8.0, 4.0, 2.0 and 1 μM. For the time-kill studies against the ATCC and MDR strains, the bacteria were cultured in BHI broth until the late log growth phase at 37° C. The bacterial suspensions, containing about 10^6 CFU/ml (adjusted by the spectrophotometer to OD600 nm), were diluted 1:100 in PBS1× and then incubated at 37° C. with or without the peptide, selected at concentrations corresponding to 1, 2 and 4×MIC (as determined above). At baseline and 1, 2, 3 and 5 hours after incubation, a portion of each sample was harvested, diluted in series in PBS1× and seeded on BHI agar. The plates were incubated for […] at 37° C., and the viable bacteria count was conducted by the CFU method. All the data were expressed as mean±SD of three independent experiments.

P. aeruginosa ATCC 27853 = assay: In vitro time-kill kinetics assay; assay type: cell-based, Pseudomonas aeruginosa
Protocol: as §1

[2] = test system: MRSA strain 2 (intracellular, HeLa cells); assay: Invasion and protection assay in HeLa cells; assay type: cell-based, Staphylococcus aureus; details: MRSA 2 strain in HeLa cells; 40 μM for 1 h
Protocol: (§2) The S. aureus ATCC 6538, MRSA strain 2 and MRSA strain 3 invasion assays were conducted as previously described (Colicchio R et al., Antimicrob Agents Chemother 2015; 59:7637-49; Spinosa M R et al. Infect Immun 2007; 75:3594-3603). HeLa cells (ATCC CCL-2) were used for the standard invasion and intracellular viability assays. The cells were cultured in DMEM with 2 mM L-glutamine. The cells were infected at a multiplicity of infection (MOI) of 50 for 1 h, washed twice with PBS1× to eliminate most of the extracellular bacteria, exposed to gentamicin (Sigma-Aldrich) to kill the remaining extracellular bacteria, and then destroyed with saponin (0.5%) to release the intracellular bacteria. To quantify the intracellular staphylococci released by the HeLa cells, the lysed cell suspension was plated on BHI agar, and the number of CFUs was counted the next day. When required, cells were re-incubated in the cell culture medium for various times (3 and 5 hours) after treatment with gentamicin. Treatment with gentamicin was conducted using 105 μM, a concentration 10 times higher than the MIC, for 30 minutes at 37° C. with 5% CO2. Cells were then washed thoroughly with PBS1× to remove the gentamicin and dead extracellular bacteria, and then lysed or re-incubated with medium. To evaluate the protection with the reduced peptide γ2 after treatment with gentamicin, the molecule was added to the sample at the final concentration of 40 µM for 1 hour, then washed twice with PBS1×, and finally destroyed with saponin. As the antibacterial activity of the reduced and oxidised peptide γ2 against S. aureus ATCC 6538 was very similar (Table 1), only the reduced form was used in the test. In all the experiments, the bacteria were centrifuged (60×g) on the cells to start the assay. The experiments were conducted in triplicate, and the data were expressed as mean±SD.

[3] = test system: S. aureus ATCC 6538 (intracellular, HeLa cells); assay: Invasion and protection assay in HeLa cells; assay type: cell-based, Staphylococcus aureus; details: wild-type strain S. aureus ATCC 6538 in HeLa cells; 40 μM for 1 h; all times tested
Protocol: as §2

[4] = test system: MRSA strain 3 (intracellular, HeLa cells); assay: Invasion and protection assay in HeLa cells; assay type: cell-based, Staphylococcus aureus; details: MRSA 3 strain in HeLa cells; 40 μM for 1 h; all times tested
Protocol: as §2

E. coli ESBL strain 1 = assay type: cell-based, Escherichia coli
Protocol: (§3) The antimicrobial activity of peptide γ2 was evaluated versus Pseudomonas aeruginosa ATCC 27853, Escherichia coli ATCC 13762 and Staphylococcus aureus ATCC 6538, and versus multidrug-resistant (MDR) clinical isolates of Methicillin-Resistant Staphylococcus aureus (MRSA), extended-spectrum β-lactamase (ESBL)-producing E. coli, P. aeruginosa and Acinetobacter baumannii complex. The isolates were identified by mass spectrometry using the MALDI (matrix-assisted laser desorption/ionisation) mass spectrometer and the biochemical phenotyping method in a VITEKR 2 bioMérieux system (bioMérieux Italia S.p.a., Bagno a Ripoli, Florence, Italy), according to the manufacturer's instructions. The antibiotic susceptibility profile was evaluated with the VITEKR 2 bioMérieux System. The microorganisms were cultured in broth and agar at 37° C. The media used were BD Brain Heart Infusion broth (BHI) (BD, Franklin Lakes, NJ, USA) and BHI agar (OXOID, Basingstoke, Hampshire, UK), BD Trypticase Soy agar with 5% sheep's blood and MacConkey agar (OXOID, Basingstoke, Hampshire, UK). The isolates were stored frozen at −80° C. in BHI broth supplemented with 10% (v/v) glycerol (Carlo Erba Reagents, Milan, Italy) until use, and the work cultures were activated in the respective broths at 37° C. for 15-18 h.
(§4) Assays of the antibacterial activity of peptide γ2, in both reduced and oxidised form, were conducted against P. aeruginosa ATCC 27853, E. coli ATCC 13762, S. aureus ATCC 6538 and MDR clinical isolates. The strains were cultured under aerobic conditions in BHI broth at 37° C. and incubated with peptide γ2 for 2 hours at 37° C. Various concentrations of peptide were used, ranging from 1 μM to 128 μM. Each test was conducted in triplicate with three independent cultures. The minimum inhibitory concentration (MIC) and the minimum bactericidal concentration (MBC) of the peptide were determined with a modified version of the Clinical and Laboratory Standards Institute broth microdilution assay, using a final inoculum concentration of 10^5 CFU/ml, as previously described (Scudiero O et al., Antimicrob Agents Chemother 2010; 54:2312-22; Scudiero O et al. Antimicrob Ag Chemother 2013; 57:1701-8).
as §1

E. coli ESBL strain 2 = assay type: cell-based, Escherichia coli
Protocol: as §3, §4, §1

E. coli ATCC 13762 = assay type: cell-based, Escherichia coli
Protocol: as §3, §4, §1

MIC (E. coli ESBL strain 1): 2 µM (≈ 4.92 µg/mL)
MIC (E. coli ESBL strain 2): 2 µM (≈ 4.92 µg/mL)
MIC (E. coli ATCC 13762): 2 µM (≈ 4.92 µg/mL)
Compound: CC[C@H](C)[C@H](NC(=O)[C@H](CCC(N)=O)NC(=O)[C@H](CCCNC(=N)N)NC(=O)[C@H](CCCNC(=N)N)NC(=O)[C@H](CCCCN)NC(=O)[C@@H]1CCCN1C(=O)[C@H](CC(C)C)NC(=O)[C@H](CS)NC(C)=O)C(=O)NCC(=O)N[C@@H](CCCCN)C(=O)N[C@@H](CO)C(=O)N[C@@H](CO)C(=O)N[C@H](C(=O)N[C@@H](CCCNC(=N)N)C(=O)NCC(=O)N[C@@H](CCCNC(=N)N)C(=O)N[C@@H](CCCCN)C(=O)N[C@@H](CO)C(=O)N[C@@H](CS)C(=O)N[C@@H](CCCCN)C(=O)N[C@@H](CCCCN)C(N)=O)[C@@H](C)O [Reduced peptide γ2] (Ac-CLPKRRQIGKSSTRGRKSCKK-NH2)
growth in time-kill assay ([1]; peptide at 2×MIC): no growth
growth and viability in time-kill assay ([1]; peptide at MIC only): initial reduction in growth and viability in the first few hours of observation, whereas at longer times (5 and 7 h) a slight resumption in growth and viability
growth in time-kill assay (P. aeruginosa ATCC 27853; peptide at 2×MIC): no growth
growth and viability in time-kill assay (P. aeruginosa ATCC 27853; peptide at MIC only): initial reduction in growth and viability in the first few hours of observation, whereas at longer times (5 and 7 h) a slight resumption in growth and viability
viable intracellular bacteria (CFU) [2]: bacteriostatic effect
viable intracellular bacteria (CFU) [3]: great reduction in viable intracellular bacteria
viable intracellular bacteria (CFU) [4]: great reduction in viable intracellular bacteria
MBC (E. coli ESBL strain 1): 2 µM (≈ 4.92 µg/mL)
MBC (E. coli ESBL strain 2): 16 µM (≈ 39.3 µg/mL)
MBC (E. coli ATCC 13762): 2 µM (≈ 4.92 µg/mL)
